How the values were obtained:
[1] = test system: mitochondrial respiration; assay: Mitochondrial respiration (oxygen consumption); assay type: biochemical; conditions: at concentrations completely blocking MPTP
Procedure: Isolated liver mitochondria (˜0.5 mg protein ml^−1) were incubated in a batch mode in the presence of 20 nM [^3H]TPP ([^3H]Tetraphenylphosphonium ([^3H]TPP, 24-29 Ci/mmol) from Amersham Biosciences, Switzerland) for 15 min at 25° C. Aliquots (100 μl) of the mixture were then distributed into 96-well plates containing 100 μl of the test compound and the incubation prolonged for 15 min at 25° C. Samples were then filtered through 0.3% (v/v) polyethyleneimmine-treated GF/B glass fiber filters using a 96-channel cell harvester and the filters washed twice with 1 ml of buffer. Fifty μl of MICROSCINT 40 (Packard) were then added to each well, before counting for radioactivity in a TopCount scintillation counter (Packard). Non-specific uptake was determined in the presence of 1 mM unlabeled TPP or 1 μM carbonylcianide-p-trifluoromethoxyphenyl hydrazone (FCCP). Mitochondrial oxygen consumption was measured polarographically at 25° C. using a Clark-type electrode.
Compounds found to inhibit MPTP where then counter-screened using uptake of the potentiometric probe [^3H]-TPP (Hoek, J. B., Nicholls, D. G. & Williamson, J. R. (1980) J. Biol. Chem. 255, 1458-1564) for determining in a semi-quantitative, but rapid way whether they interfered with mitochondrial respiration (e.g. protonophores). […]

MPTP [2] = test system: T1, MPTP; assay: Ca2+-induced swelling in deenergized liver mitochondria; assay type: biochemical; conditions: n=2; 30 min after addition of 200 μM Ca2+; read-out: EC50 of MPTP inhibition in deenergized mitochondria
T1 construct: other: n=2; 30 min after addition of 200 μM Ca2+

MPTP [3] = target: T2, MPTP (Rattus norvegicus, UniProt Q9Z2L0); assay: Ca2+-induced depolarisation (membrane potential, Rhodamine-123) of rat brain mitochondria; assay type: biochemical
T2 construct: other: n=2; glutamate/malate; other: glutamate/malate; 20 min; mean±SEM; unit not given; other: 300 nM; relieved by 50 μM Ub5
T2 sequence (Q9Z2L0 2-283): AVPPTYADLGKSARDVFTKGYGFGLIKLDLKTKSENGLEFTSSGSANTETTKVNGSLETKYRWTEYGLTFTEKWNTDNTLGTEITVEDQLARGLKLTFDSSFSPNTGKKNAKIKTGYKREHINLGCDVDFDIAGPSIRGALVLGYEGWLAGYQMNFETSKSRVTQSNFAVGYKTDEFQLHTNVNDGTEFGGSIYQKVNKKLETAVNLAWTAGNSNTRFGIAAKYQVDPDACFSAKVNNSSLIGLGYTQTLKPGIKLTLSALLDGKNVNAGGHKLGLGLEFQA

VDAC1 = target: T3, VDAC1 (Rattus norvegicus, UniProt Q9Z2L0); assay: Affinity labeling of rat mitochondria with the tritiated spiro compound, SDS-PAGE and fluorography; assay type: binding; conditions: rat brain and liver mitochondria; 10 nM radiolabel; increasing concentration
T3 construct: from tissue; host or cells: Percoll-purified rat brain and liver mitochondria
T3 sequence (Q9Z2L0 whole entry): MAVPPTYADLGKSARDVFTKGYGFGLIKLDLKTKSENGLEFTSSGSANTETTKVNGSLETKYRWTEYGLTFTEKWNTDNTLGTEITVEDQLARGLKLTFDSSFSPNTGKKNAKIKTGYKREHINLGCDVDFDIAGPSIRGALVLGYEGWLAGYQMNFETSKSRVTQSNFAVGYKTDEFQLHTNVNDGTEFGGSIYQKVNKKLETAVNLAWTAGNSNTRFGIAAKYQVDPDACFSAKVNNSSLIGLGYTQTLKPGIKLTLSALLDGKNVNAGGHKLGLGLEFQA
Procedure: FIG. 6: Affinity-labeling of isolated rat brain (A) and liver (B) mitochondria. Mitochondrial preparations were incubated in the presence of 10 nM Spiro[cyclopentane-1,5′-[5H]dibenzo[a,d]cyclohepten]-2-one,10′,11′-t2-10′,11′-dihydro-3-methylene- for 15 min at 25° C. in presence or absence of various concentrations of Spiro[cyclopentane-1,5′-[5H]dibenzo[a,d]cyclohepten]-2-one,10′,11′-dihydro-3-methylene-(unlabeled). Samples were submitted to SDS-PAGE (see Experimental Procedures section for details) and fluorography. The fluorograms of the gels are shown. The molecular mass scale (kDa) is shown in the ordinate.
(§1) FIG. 8: (A) Effect of monobromobimano (MBBM) and phenylarsino oxide (PhAO) on VDAC1 labeling by Spiro[cyclopentane-1,5′-[5H]dibenzo[a,d]cyclohepten]-2-one,10′,11′-t2-10′,11′-dihydro-3-methylene- in rat brain mitochondria. Experimental conditions were as in the legend to FIG. 5. (B) Effect of various MPTP inhibitors, atractyloside (ATR) and DIDS on VDAC1 labeling by Spiro[cyclopentane-1,5′-[5H]dibenzo[a,d]cyclohepten]-2-one,10′,11′-t2-10′,11′-dihydro-3-methylene- in rat brain mitochondria. Mitochondria were exposed to DIDS for 5 min before rinsing for removal of the free agent and labeling with Spiro[cyclopentane-1,5′-[5H]dibenzo[a,d]cyclohepten]-2-one,10′,11′-t2-10′,11′-dihydro-3-methylene.
Percoll purified mitochondria (˜30 μg protein per sample) were incubated in the presence of 10 nM Spiro[cyclopentane-1,5′-[5H]dibenzo[a,d]cyclohepten]-2-one,10′,11′-t2-10′,11′-dihydro-3-methylene- in a final volume of 200 μl. After incubation for 15 min at 25° C., samples were centrifuged at 25000×g and the mitochondrial pellet rinsed twice with buffer. Samples were then solubilized in sample buffer containing β-mercaptoethanol (1 h at 37° C.) and subjected to SDS-polyacrylamide gel-electrophoresis (SDS-PAGE) on Tris-glycine Novex pre-cast mini-gels (12% monomer concentration, Invitrogen BV, The Netherlands). After Coomassie Blue staining, gels were processed for fluorography by soaking in Amplify™ (Amersham Biosciences), drying and exposing to X-ray BioMax MS film with BioMax MS intensifying screen (Kodak) at −80° C. for the appropriate time.
as §1, with “Effect” for “FIG. 8: (A) Effect”, “monobromobimano” for “monobromobimano (MBBM)”, “oxide” for “oxide (PhAO)”, “Example 12 (FIG. 8A).” for “the legend to FIG. 5. (B)”, “Spiro[cyclopentane-1,5′-[5H]dibenzo[a,d]cyclohepten]-2-one,10′,11′-t2-10′,11′-dihydro-3-methylene (FIG. 8B).” for “Spiro[cyclopentane-1,5′-[5H]dibenzo[a,d]cyclohepten]-2-one,10′,11′-t2-10′,11′-dihydro-3-methylene.”

MPTP [4] = target: T2, MPTP; assay: Ca2+-induced swelling in rat brain mitochondria; assay type: biochemical; conditions: 80 μM CaCl2; potency in the range of liver mitochondria
Procedure: The effect of Spiro[cyclopentane-1,5′-[5H]dibenzo[a,d]cyclohepten]-2-one,10′,11′-dihydro-3-methylene- at inhibiting MPTP was also investigated in mitochondria isolated from rat forebrain. […] Due to the difficulties mentioned above, the effect of Spiro[cyclopentane-1,5′-[5H]dibenzo[a,d]cyclohepten]-2-one,10′,11′-dihydro-3-methylene- on MPTP in brain mitochondria was more accurately investigated by subjecting mitochondria isolated from rat forebrain to a series of Ca^2+ pulses (5 μM, ˜150 nmol mg protein^−1) and by monitoring extramitochondrial Ca^2+ or using fluororescent probes.

C=C1CCC2(C1=O)c1ccccc1CCc1ccccc12 [Spiro[cyclopentane-1,5′-[5H]dibenzo[a,d]cyclohepten]-2-one,10′,11′-dihydro-3-methylene-]
Inhibition of mitochondrial respiration (basal, ADP-induced and uncoupled) [1]: did not inhibit | EC50 (MPTP [2]): 370 nM | Inhibition of Ca2+-induced depolarisation (MPTP [3]; 300 nM, 20 μM Ca2+, relieved by 50 μM Ub5): inhibited | Number of Ca2+ additions necessary to induce complete depolarization (MPTP [3]; series of 5 μM Ca2+ additions, membrane potential monitored): increased | Effect of unlabeled compound on labeling of the ~32 kDa band (VDAC1): inhibited | Inhibition of swelling in brain mitochondria (MPTP [4]): inhibited

Source: patent publication US7642283B2, “Mitochrondrial permeability transition pore affinity labels and modulators” (Hoffmann-La Roche Inc., priority 2003, dated 2010)
